Laboratory results: PubChem BioAssay AID1549 (Sanford-Burnham Center for Chemical Genomics, 2009)
Activity calls are given as the source filed them. How the calls were made is not given here.

Molecular target: Influenza A virus M2 proton channel (A/TW/4845/1999 H1N1)
Experiment: M2 proton channel binding, NMR based, influenza A virus H1N1 strain (AID 1549)
Settings: NMR binding screen, M2 protein

Compound | Kd
Cc1nc2ccccc2c(=O)n1CCCO | > 4 mM (inactive)
CCNC(=S)N1CCCC(C(N)=O)C1 (stereo not drawn) | > 4 mM (inactive)
NC(CCC(=O)Nc1ccc([N+](=O)[O-])cc1)C(=O)O (stereo not drawn) | > 4 mM (inactive)
O=C(O)C1CCN(C(=O)c2cccs2)CC1 | > 4 mM (inactive)
NCc1csc(-c2cccs2)n1 | > 4 mM (inactive)
O=C1CCC(c2cccs2)=NN1 | > 4 mM (inactive)
COc1ccc(-c2cc(=O)c3c(OC(C)=O)cc(OC(C)=O)cc3o2)cc1 | > 4 mM (inactive)
COC(=O)c1cncn1C | > 4 mM (inactive)
O=C(NCN1CCOCC1)c1cnccn1 | > 4 mM (inactive)
CC1=C2C(O)C(=O)OC3CC4C(C)(C)C(=O)C=C[C@]4(C)C(CC1)[C@]23C (stereo partly drawn) | > 4 mM (inactive)
CN(c1ccc(C(=O)N2CCCCC2)cc1)S(C)(=O)=O | > 4 mM (inactive)
C=C1CCC2C(CC2(C)C)C(=C)CC/C1=N/O (stereo not drawn) | > 4 mM (inactive)
CC(CC(O)C1OC1(C)C)[C@@H]1CCC2(C)C3=CCC4C(C)(C)C(=O)CCC4(C)C3CC[C@@]12C (stereo partly drawn) | > 4 mM (inactive)
NC(C(=O)O)C(O)c1ccccc1 (stereo not drawn) | > 4 mM (inactive)
Cc1nc(-c2cccc(N)c2)cs1 | > 4 mM (inactive)
CCOc1cc(S(=O)(=O)N2CCOCC2)ccc1F | > 4 mM (inactive)
O=C(O)c1ccc2nccnc2c1 | > 4 mM (inactive)
COc1cccc2onc(N)c12 | > 4 mM (inactive)
CC(C)=CC(=O)Nc1ccccc1C(N)=O | > 4 mM (inactive)
c1ccc(-n2nnnc2Oc2cccc3cccnc23)cc1 | > 4 mM (inactive)
CS(=O)(=O)c1ccc2nc(N)sc2c1 | > 4 mM (inactive)
O=C(O)/C=C/C=C/c1ccccc1 | > 4 mM (inactive)
Cc1cc(C)nc(Nc2n[nH]c(Cc3ccccc3)n2)n1 | > 4 mM (inactive)
CN(C)C(=S)Nc1ccccc1N1CCOCC1 | > 4 mM (inactive)

Compound | Kd
CC(=O)O[C@@H]1C=C[C@@]2(C)C(C[C@@H](OC(C)=O)[C@@]3(C)C4=CC(=O)O[C@@H](c5ccoc5)[C@]4(C)CCC23)C1(C)C (stereo partly drawn) | > 4 mM (inactive)
COc1cc(C)nc(N(CCO)CCO)n1 | > 4 mM (inactive)
Cc1nc2ccc(NC(=O)N3CCSCC3)cc2s1 | > 4 mM (inactive)
Nc1nc(NCc2ccco2)nn1-c1ccccc1 | > 4 mM (inactive)
Cc1onc(-c2ccccc2)c1C(=O)Nc1ccncc1 | > 4 mM (inactive)
Cc1ccc(C(=O)Nc2ccncc2)o1 | > 4 mM (inactive)
Nc1ccc(C2SCCS2)cc1 | > 4 mM (inactive)
CSc1nnnn1-c1cccc(O)c1 | > 4 mM (inactive)
Cn1c(=O)[nH]c2nc[nH]c2c1=O | > 4 mM (inactive)
Cn1cnc2c1c(=O)[nH]c(=O)n2C | > 4 mM (inactive)
CC(=O)c1c(C)nn(CC(=O)O)c1C | > 4 mM (inactive)
Nc1cccc(C(=O)Nc2ccc(N)cc2Cl)c1 | > 4 mM (inactive)
COc1ccc2cc1Oc1ccc(cc1)C[C@H]1c3cc(c(OC)cc3CCN1C)Oc1c(OC)c(OC)cc3c1[C@H](C2)N(C)CC3 | > 4 mM (inactive)
NC(CSCSCC(N)C(=O)O)C(=O)O (stereo not drawn) | > 4 mM (inactive)
NCc1nnnn1-c1ccccc1 | > 4 mM (inactive)
CC(C)=CCc1c2c(c(O)c3c(=O)c(O)c(-c4ccccc4)oc13)C=CC(C)(C)O2 | > 4 mM (inactive)
NC(=S)N1CCC(c2ccccc2)=N1 | > 4 mM (inactive)
COc1ccc2c(c1)OCC(Cc1ccc(OC)c(OC(C)=O)c1)C2=O (stereo not drawn) | > 4 mM (inactive)
Cc1cc(=O)[nH]c(N2CCN(Cc3ccccc3)CC2)n1 | > 4 mM (inactive)
O=C1CSC(=O)N1CN1CCCC1 | > 4 mM (inactive)
CSc1nc2[nH]ncc2c(=O)[nH]1 | > 4 mM (inactive)
NC(=O)Cn1cnc2c(cnn2-c2ccccc2)c1=O | > 4 mM (inactive)
Clc1ccccc1OCCn1ccnc1 | > 4 mM (inactive)
C[C@@H]1O[C@@H](O[C@H]2C[C@@H](O)[C@]3(CO)C4C(CC[C@]3(O)C2)[C@@]2(O)CC[C@H](C3=CC(=O)OC3)[C@@]2(C)C[C@H]4O)[C@H](O)[C@H](O)[C@H]1O (stereo partly drawn) | > 4 mM (inactive)

Compound | Kd
O=S(=O)(Cc1ccccc1)N1CCCCCC1 | > 4 mM (inactive)
COc1cc([C@@H]2c3cc4c(cc3[C@H](OC(C)=O)[C@H]3COC(=O)[C@@H]23)OCO4)cc(OC)c1OC | > 4 mM (inactive)
Cc1cc(C(=O)NCc2cccnc2)no1 | > 4 mM (inactive)
OC(c1ccccc1)c1ccccn1 (stereo not drawn) | > 4 mM (inactive)
COc1cc(O)c(C(C)=O)c(OC)c1 | > 4 mM (inactive)
O=C(NCc1cccc(Cl)c1)c1cccnc1 | > 4 mM (inactive)
O=C1CCCC2C3CC(CN12)[C@@H]1CCCCN1C3 (stereo partly drawn) | > 4 mM (inactive)
Cc1cc(C)n2c(SCc3c(C)noc3C)nnc2n1 | > 4 mM (inactive)
CC(=O)Nc1cccc(NC(=O)c2cccnc2)c1 | > 4 mM (inactive)
Cc1nn(-c2ccccc2)nc1C(N)=O | > 4 mM (inactive)
NC(=O)CCS(=O)(=O)CCN1CCOCC1 | > 4 mM (inactive)
CC(=O)Oc1c(C)cc(O)c2ccccc12 | > 4 mM (inactive)
Cc1nc(-c2ccccc2)sc1CN | > 4 mM (inactive)
Cc1nc(-c2cccc(-c3noc(C)n3)c2)no1 | > 4 mM (inactive)
COc1cccc(/C=C2/SC(N)=NC2=O)c1 | > 4 mM (inactive)
O=C(Nc1nc2c(s1)CCCC2)c1cccnc1 | > 4 mM (inactive)
CCC(C)C(=O)O[C@@H]1C[C@@]2(C)[C@H](c3ccoc3)OC(=O)CC23OC2(C)O[C@]14[C@]1(C)[C@@H](CC(=O)OC)C5(C)CC1(O)[C@](O)(C5OC(=O)C1(C)OC1C)[C@@H](OC(C)=O)[C@]34O2 (stereo partly drawn) | > 4 mM (inactive)
NC(=O)COc1cccc2cccnc12 | > 4 mM (inactive)
Nc1cccnc1N1CCOCC1 | > 4 mM (inactive)
FC(F)(F)c1nnc2ccc(N3CCOCC3)nn12 | > 4 mM (inactive)
O=C(NCC1CCNCC1)c1ccccn1 | > 4 mM (inactive)
Cc1nc2ccccc2c(=O)n1/N=C/c1ccncc1 | > 4 mM (inactive)
O=C1CCC(=O)N1CNc1ccccc1 | > 4 mM (inactive)
CNC(=O)c1ccccc1N | > 4 mM (inactive)

Compound | Kd
CNC(=O)c1cc(S(=O)(=O)N(C)C)ccc1Cl | > 4 mM (inactive)
CN(C)c1ccc(CNn2cnnc2)cc1 | > 4 mM (inactive)
Cc1ccc(O)c(NC(=O)c2ccco2)c1 | > 4 mM (inactive)
C=C(C)CSc1nc2nc(C)cc(C)n2n1 | > 4 mM (inactive)
Nc1ncnc(NCCCO)c1[N+](=O)[O-] | > 4 mM (inactive)
Cc1nn(C)c(Cl)c1S(=O)(=O)N1CCOCC1 | > 4 mM (inactive)
COc1cc(OC)c2c(c1)O[C@H](c1ccc(OC)c(OC)c1)[C@@H](O)C2 | > 4 mM (inactive)
O=c1c2ccccc2ncn1C1CCCCC1 | > 4 mM (inactive)
O=[N+]([O-])c1ccc(/C=N/c2ncn[nH]2)cc1 | > 4 mM (inactive)
O=C(c1cccnc1Cl)N1CCOCC1 | > 4 mM (inactive)
C=CCc1ccc(O)c(OC)c1 | > 4 mM (inactive)
CC(=O)Oc1c(-c2ccccc2)oc2c(CC=C(C)C)c3c(c(OC(C)=O)c2c1=O)C=CC(C)(C)O3 | > 4 mM (inactive)
COc1cccc(-c2nc3ccc(O)cc3c(=O)o2)c1 | > 4 mM (inactive)
CC1(C)C2CC(=O)[C@]3(C)C(CC[C@@]4(C)[C@H](c5ccoc5)OC(=O)C5OC543)[C@@]2(C)[C@@H](O)C[C@H]1O (stereo partly drawn) | > 4 mM (inactive)
O=C(O)C1CSC(c2ccco2)N1 (stereo not drawn) | > 4 mM (inactive)
OCc1ccc2c(c1)OCO2 | > 4 mM (inactive)
CC(=O)NC(c1ccccc1)c1cccnc1 (stereo not drawn) | > 4 mM (inactive)
Cc1ccccc1C(=O)Nc1cccc(N)c1 | > 4 mM (inactive)
Cc1cc(C(=O)Nc2cccnc2)no1 | > 4 mM (inactive)
OCC1CCN(Cc2ccccc2)CC1 | > 4 mM (inactive)
Nc1nc2ccc(C(=O)O)cc2s1 | > 4 mM (inactive)
Nc1ccc(N2CCCCC2)cc1 | > 4 mM (inactive)
CC1(C)O[C@H]2[C@H](O)C[C@](O)(C(N)=O)C[C@H]2O1 | > 4 mM (inactive)
NC(=O)CN1CC(c2ccccc2)CC1=O (stereo not drawn) | > 4 mM (inactive)

Compound | Kd
Cc1csc(SCC(=O)N2CCCC2)n1 | > 4 mM (inactive)
COc1cc2c(cc1OC)[C@@H]1C(=O)c3ccc4oc(C(C)C)cc4c3O[C@@H]1CO2 | > 4 mM (inactive)
Cn1c(=O)[nH]c(=O)c2c1ncn2CCN1CCCCC1 | > 4 mM (inactive)
O=C(CS(=O)(=O)c1ccccc1)N1CCCCCC1 | > 4 mM (inactive)
NCc1ccc2c(c1)OCO2 | > 4 mM (inactive)
COc1ccc(C(N)=O)cc1NC(C)=O | > 4 mM (inactive)
O=C(NCCCSc1ncccn1)Nc1ncccn1 | > 4 mM (inactive)
Cn1c(SCC(N)=O)nnc1-c1c[nH]c2ccccc12 | > 4 mM (inactive)
O=C(c1ccco1)N1C(=O)c2cccc3cccc1c23 | > 4 mM (inactive)
O=c1c(-c2ccc(O)cc2)coc2cc(O)ccc12 | > 4 mM (inactive)
CS(=O)(=O)N1CCN(C(=O)Cc2cccs2)CC1 | > 4 mM (inactive)
c1ccc(-c2nnc(CNCc3ccco3)o2)cc1 | > 4 mM (inactive)
Nc1cccc2cccnc12 | > 4 mM (inactive)
CC(=O)OC1CCC23CC1(C)CCC2C(C)(C)CC3OC(C)=O (stereo not drawn) | > 4 mM (inactive)
O=C1C2CC=CCC2C(=O)N1c1ccccc1 (stereo not drawn) | > 4 mM (inactive)
S=C(c1ccc(N2CCOCC2)cc1)N1CCOCC1 | > 4 mM (inactive)
CCn1ccc(C(=O)Nc2nccs2)n1 | > 4 mM (inactive)
CCCNC(=O)CSc1ncccc1C(=O)O | > 4 mM (inactive)
CC(=O)Oc1cc2c(C(C)=O)coc2c2ccccc12 | > 4 mM (inactive)
Cc1cc(C(=O)c2c(C)nn(C)c2Cl)n(C)n1 | > 4 mM (inactive)
O=C(O)CCCC(=O)Nc1nccs1 | > 4 mM (inactive)
O=c1[nH]nc(Cc2ccccn2)c2ccccc12 | > 4 mM (inactive)
